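Cells were grown in 96-well plates and exposed to each compound for 48 hours at five concentrations; endpoints were interpolated linearly between bracketing concentrations, or set to the highest concentration if not reached. GI50 marks 50% less growth.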 Activity calls are given as the source filed them. Cut-off read from the data, not from the text of the source: active = GI50 up to about 1.1 µM and inactive = higher.
Tests used:
Test in all cases: NCI-60 cell line screen, 48 h
OVCAR-3 = test system: OVCAR-3
RXF 393 = test system: RXF 393
BT-549 = test system: BT-549
SK-MEL-5 = test system: SK-MEL-5
TK-10 = test system: TK-10
COLO 205 = test system: COLO 205
NCI-H23 = test system: NCI-H23
SK-MEL-28 = test system: SK-MEL-28
786-0 = test system: 786-0
IGROV-1 = test system: IGROV-1
HL-60 = test system: HL-60
SK-MEL-2 = test system: SK-MEL-2
SNB-75 = test system: SNB-75
NCI-H460 = test system: NCI-H460
SR = test system: SR
CAKI-1 = test system: CAKI-1
SW-620 = test system: SW-620
SNB-19 = test system: SNB-19
HOP-62 = test system: HOP-62
HT-29 = test system: HT-29
SK-OV-3 = test system: SK-OV-3
SN12C = test system: SN12C
NCI-H226 = test system: NCI-H226
MDA-MB-435 = test system: MDA-MB-435
MDA-MB-231 = test system: MDA-MB-231
OVCAR-8 = test system: OVCAR-8
M14 = test system: M14
SF-295 = test system: SF-295
K562 = test system: K562
KM12 = test system: KM12
UACC-257 = test system: UACC-257
HCT-116 = test system: HCT-116
RPMI-8226 = test system: RPMI-8226
OVCAR-4 = test system: OVCAR-4
MDA-N = test system: MDA-N
NCI/ADR-RES = test system: NCI/ADR-RES
LOX IMVI = test system: LOX IMVI
SF-268 = test system: SF-268
MOLT-4 = test system: MOLT-4
DU-145 = test system: DU-145
MCF7 = test system: MCF7
HCT-15 = test system: HCT-15
UO-31 = test system: UO-31
OVCAR-5 = test system: OVCAR-5
Malme-3M = test system: Malme-3M
CCRF-CEM = test system: CCRF-CEM
UACC-62 = test system: UACC-62
PC-3 = test system: PC-3
U-251 = test system: U-251
Hs-578T = test system: Hs-578T
A549 = test system: A549
SF-539 = test system: SF-539
A498 = test system: A498
ACHN = test system: ACHN
EKVX = test system: EKVX
NCI-H522 = test system: NCI-H522
HCC 2998 = test system: HCC 2998

SMILES: COc1ccccc1Cn1c2c(c3cc(O)ccc31)C(=O)c1ccccc1C2=O
- GI50 (OVCAR-3): 28.9 µM (inactive)
- GI50 (RXF 393): 2.6 µM (inactive)
- GI50 (BT-549): > 100 µM (inactive)
- GI50 (SK-MEL-5): 37.2 µM (inactive)
- GI50 (TK-10): 72.8 µM (inactive)
- GI50 (COLO 205): 61.9 µM (inactive)
- GI50 (NCI-H23): 20 µM (inactive)
- GI50 (SK-MEL-28): 76.4 µM (inactive)
- GI50 (786-0): 13.3 µM (inactive)
- GI50 (IGROV-1): 16.6 µM (inactive)
- GI50 (HL-60): > 100 µM (inactive)
- GI50 (SK-MEL-2): 38.6 µM (inactive)
- GI50 (SNB-75): 19.2 µM (inactive)
- GI50 (NCI-H460): 26.2 µM (inactive)
- GI50 (SR): 52.8 µM (inactive)
- GI50 (CAKI-1): 16.7 µM (inactive)
- GI50 (SW-620): 79.4 µM (inactive)
- GI50 (SNB-19): 27.1 µM (inactive)
- GI50 (HOP-62): 16.1 µM (inactive)
- GI50 (HT-29): > 100 µM (inactive)
- GI50 (SK-OV-3): 2.42 µM (inactive)
- GI50 (SN12C): 22.8 µM (inactive)
- GI50 (NCI-H226): 21.6 µM (inactive)
- GI50 (MDA-MB-435): 84.3 µM (inactive)
- GI50 (MDA-MB-231): 12.4 µM (inactive)
- GI50 (OVCAR-8): 11.7 µM (inactive)
- GI50 (M14): > 100 µM (inactive)
- GI50 (SF-295): 11.2 µM (inactive)
- GI50 (K562): > 100 µM (inactive)
- GI50 (KM12): 70.6 µM (inactive)
- GI50 (UACC-257): > 100 µM (inactive)
- GI50 (HCT-116): 23.8 µM (inactive)
- GI50 (RPMI-8226): 15.3 µM (inactive)
- GI50 (OVCAR-4): 3.21 µM (inactive)
- GI50 (MDA-N): > 100 µM (inactive)
- GI50 (NCI/ADR-RES): 11.3 µM (inactive)
- GI50 (LOX IMVI): 12.4 µM (inactive)
- GI50 (SF-268): 19.7 µM (inactive)
- GI50 (MOLT-4): > 100 µM (inactive)
- GI50 (DU-145): 39.4 µM (inactive)
- GI50 (MCF7): 10.1 µM (inactive)
- GI50 (HCT-15): 90.2 µM
- GI50 (UO-31): 48 µM (inactive)
- GI50 (OVCAR-5): 10.4 µM (inactive)
- GI50 (Malme-3M): > 100 µM (inactive)
- GI50 (CCRF-CEM): 37.5 µM (inactive)
- GI50 (UACC-62): 17 µM (inactive)
- GI50 (PC-3): 8.49 µM (inactive)
- GI50 (U-251): 16 µM (inactive)
- GI50 (Hs-578T): 36.6 µM (inactive)
- GI50 (A549): 19.5 µM (inactive)
- GI50 (SF-539): 12.7 µM (inactive)
- GI50 (A498): 93.8 µM (inactive)

SMILES: NC(Cc1ccc(B(O)O)cc1)C(=O)NC(CO)CO (stereo unspecified)
- GI50 (OVCAR-3): > 100 µM (inactive)
- GI50 (RXF 393): 67.6 µM (inactive)
- GI50 (BT-549): > 100 µM (inactive)
- GI50 (SK-MEL-5): > 100 µM (inactive)
- GI50 (TK-10): > 100 µM (inactive)
- GI50 (COLO 205): > 100 µM (inactive)
- GI50 (NCI-H23): > 100 µM (inactive)
- GI50 (ACHN): > 100 µM (inactive)
- GI50 (SK-MEL-28): > 100 µM (inactive)
- GI50 (786-0): > 100 µM (inactive)
- GI50 (IGROV-1): > 100 µM (inactive)
- GI50 (SK-MEL-2): > 100 µM (inactive)
- GI50 (SNB-75): > 100 µM (inactive)
- GI50 (NCI-H460): > 100 µM (inactive)
- GI50 (SR): > 100 µM (inactive)
- GI50 (CAKI-1): > 100 µM (inactive)
- GI50 (SW-620): > 100 µM (inactive)
- GI50 (SNB-19): > 100 µM (inactive)
- GI50 (EKVX): > 100 µM (inactive)
- GI50 (HOP-62): > 100 µM (inactive)
- GI50 (HT-29): > 100 µM (inactive)
- GI50 (SK-OV-3): > 100 µM (inactive)
- GI50 (SN12C): > 100 µM (inactive)
- GI50 (NCI-H226): > 100 µM (inactive)
- GI50 (MDA-MB-435): > 100 µM (inactive)
- GI50 (MDA-MB-231): > 100 µM (inactive)
- GI50 (OVCAR-8): > 100 µM (inactive)
- GI50 (M14): > 100 µM (inactive)
- GI50 (SF-295): > 100 µM (inactive)
- GI50 (K562): > 100 µM (inactive)
- GI50 (KM12): > 100 µM (inactive)
- GI50 (UACC-257): > 100 µM (inactive)
- GI50 (HCT-116): > 100 µM (inactive)
- GI50 (RPMI-8226): > 100 µM (inactive)
- GI50 (OVCAR-4): > 100 µM (inactive)
- GI50 (NCI-H522): > 100 µM (inactive)
- GI50 (MDA-N): > 100 µM (inactive)
- GI50 (NCI/ADR-RES): > 100 µM (inactive)
- GI50 (LOX IMVI): > 100 µM (inactive)
- GI50 (SF-268): > 100 µM (inactive)
- GI50 (HCC 2998): > 100 µM (inactive)
- GI50 (MOLT-4): > 100 µM (inactive)
- GI50 (HCT-15): > 100 µM
- GI50 (UO-31): > 100 µM (inactive)
- GI50 (OVCAR-5): > 100 µM (inactive)
- GI50 (Malme-3M): > 100 µM (inactive)
- GI50 (CCRF-CEM): > 100 µM (inactive)
- GI50 (UACC-62): > 100 µM (inactive)
- GI50 (PC-3): > 100 µM (inactive)
- GI50 (U-251): > 100 µM (inactive)
- GI50 (Hs-578T): > 100 µM (inactive)
- GI50 (A549): > 100 µM (inactive)
- GI50 (SF-539): > 100 µM (inactive)

From ChEMBL document CHEMBL1201862, “PubChem BioAssay data set” (2004)
